In patent US12391695B2, “PRMT5 inhibitors” (Lupin Limited, priority 2019, dated 2025):
Read-outs that look alike come from different tables or passages of the source.

Experiments:
PRMT5:MEP50 = PRMT5:MEP50 (Homo sapiens, UniProt O14744); assay: PRMT5 biochemical assay (HTRF, biotinylated H4R3 substrate), protocols 1 and 2; settings: 1 μM SAM, 50 nM biotinylated H4R3, protocol 1 or 2 not given, read-out: IC50 (activity range), inhibition of PRMT5
Method: (§1) Inhibitory effect of compounds on PRMT5 was assessed using HTRF detection technology in biochemical assay. Biotinylated H4R3 (residues 1-21) was used as a substrate. Compounds were pre-incubated with 15-25 ng PRMT5:MEP50 per well of a 384-well plate for 30 min at room temperature in the assay buffer containing 20 mM Bicine, pH 7.6, 25 mM NaCl, 2 mM DTT, 0.01% Chicken albumin and 0.01% Tween-20. Reaction was initiated by adding 1 μM of SAM and 50 nM biotinylated H4R3. Total assay volume was 15 μL. Reaction was continued for 120 min at room temperature. Then detection solution containing Streptavidin-Eu cryptate, anti-rabbit IgG-XL-665, Histone H4R3 Dimethyl Symmetric (H4R3me2s) Polyclonal Antibody, all prepared in HTRF detection buffer was added and further incubated for 30 min at room temperature. HTRF signal was recorded in PHERAStar microplate reader. Ratio of signal obtained at 665 nm and 620 nm was used to compute the percent inhibition of compound as follows % Inhibition=100−((Test Ratio−Negative control Ratio)/(Positive control Ratio−Negative control Ratio)*100) where Positive control=PRMT5+SAM+H4R3 Negative control=PRMT5+H4R3 Biochemical Assay Protocol 2
as §1, with “2.5” for “15-25”, “4 h” for “120 min”, “control=PRMT5+H4R3” for “control=PRMT5+H4R3 Biochemical Assay Protocol 2”

SDMA = SDMA inhibition assay in Z-138 cells (ELISA with anti-SDMA antibody); assay type: cell-based; settings: Homo sapiens, Z-138, 48 h, 48 h treatment
Method: Z-138 cells (ATCC, CRL-3001™) were seeded at a density of 1 million cells/well in transparent, flat bottomed tissue culture grade 48-well plates. Cells were treated with various concentration of test compounds for a period of 48 h. Cell lysate was prepared using 1× CST Lysis buffer (Cell Signaling Technology, USA) and 500 ng/well/50 μL of lysate in pH 9.6 carbonate buffer was coated on 96-well Maxisorb plate and incubated overnight at 4° C. The plate was washed twice in 1×PBS containing 0.05% Tween 20 and blocked in 1% BSA for 1 h at ambient temperature. Further, the plate was incubated first with primary antibody (anti-SDMA antibody; CST #13222s) at ambient temperature for 2 h and then with HRP-conjugated secondary antibody at ambient temperature for 1 h with 2 intermittent washing steps in between.
For luminiscence based detection, HRP substrates (substrate A+substrate B in a 1:1 proportion) were added followed by luminiscence reading after 30 min in Synergy™ 2 reader (Biotek, USA).
For absorbance based detection, TMB substrate was added followed by addition of STOP solution (2N H2SO4) post colour development and absorbance (excitation 450 nm and emission 540 nm) was measured in Synergy™ 2 reader (Biotek, USA).
% inhibition of SDMA was calculated relative to the vehicle control samples containing media with 0.1% DMSO alone as per the formula below. (Avg. of Untreated Control−Avg. of Test)×100 Avg. Of Untreated Control
The IC50 values of individual compounds were calculated with Non Linear Regression Analysis using Graph Pad Prism (Graph Pad software, Inc, USA).

Z-138 cells = assay: Anti-cancer assay (Z-138), cell viability by CellTiterGlo; assay type: cell-based; settings: Homo sapiens, 96 h treatment, read-out: IC50 (activity range), inhibition of cell viability
Method: Z-138 cells were seeded at a density of 2000-3000 cells per well in culture media (IMDM+10% FBS). PANC-1 (ATCC, CRL-1469™) and MIA PaCa-2 (ATCC, CRL-1420™) cells were seeded at a density of 200-300 cells per well in culture media (DMEM+10% FBS). Cells were seeded in opaque, flat bottomed tissue culture grade 96-well plates and Z-138 cells (suspension) were seeded and treated on the same day with various concentrations of test compounds. PANC-1 and MIA PaCa-2 cells, being adherent, were kept for overnight settlement at standard cell culture conditions (37° C., 5% CO2). On the following day, cells were treated with various concentrations of test compounds. Cells were treated with test compounds for a period of 96 h, 7 days and 10 days, for Z-138 cells, PANC-1 cells and MIA PaCa-2 cells, respectively. Cell viability was assessed using CellTiterGlo™ (Promega, USA) as per manufacturer's instructions. Relative Light Units (RLU) were read in Synergy™ 2 reader (Biotek, USA). The assay measures cellular ATP as an indicator of cell viability. RLU is proportional to the number of viable cells in the respective well. % inhibition of cell viability was calculated relative to the vehicle control samples containing media with 0.1% DMSO alone as per the formula below. (Avg. of Untreated Control−Avg. of Test)×100 Avg. Of Untreated Control
The IC50 values of individual compounds were calculated with Non Linear Regression Analysis using Graph Pad Prism (Graph Pad software, Inc, USA). • Anti-Cancer Assay (Z-138)

[1] = read-out: IC50 (activity range), SDMA inhibition
[2] = range with mixed units pM/nM, units kept in the value

Chain of PRMT5:MEP50 (O14744 whole entry, the tested form may be a part): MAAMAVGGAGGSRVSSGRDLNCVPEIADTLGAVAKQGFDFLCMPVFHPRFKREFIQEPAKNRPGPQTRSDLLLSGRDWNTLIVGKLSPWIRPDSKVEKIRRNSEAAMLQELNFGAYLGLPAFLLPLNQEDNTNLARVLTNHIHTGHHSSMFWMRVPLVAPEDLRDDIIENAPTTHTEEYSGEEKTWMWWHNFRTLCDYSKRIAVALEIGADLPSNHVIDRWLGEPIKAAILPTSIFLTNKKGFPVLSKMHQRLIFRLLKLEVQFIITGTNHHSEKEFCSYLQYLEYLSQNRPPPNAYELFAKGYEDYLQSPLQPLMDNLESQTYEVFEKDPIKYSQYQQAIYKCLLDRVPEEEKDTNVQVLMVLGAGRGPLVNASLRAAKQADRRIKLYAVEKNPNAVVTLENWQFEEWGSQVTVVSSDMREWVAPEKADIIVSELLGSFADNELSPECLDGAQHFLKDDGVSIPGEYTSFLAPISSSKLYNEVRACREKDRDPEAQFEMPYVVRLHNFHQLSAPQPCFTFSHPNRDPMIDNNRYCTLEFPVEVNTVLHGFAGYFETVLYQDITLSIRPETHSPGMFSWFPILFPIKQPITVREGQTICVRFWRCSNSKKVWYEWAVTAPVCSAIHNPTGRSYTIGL
Chain of PRMT5:MEP50 (Q9BQA1 whole entry partner, the tested form may be a part): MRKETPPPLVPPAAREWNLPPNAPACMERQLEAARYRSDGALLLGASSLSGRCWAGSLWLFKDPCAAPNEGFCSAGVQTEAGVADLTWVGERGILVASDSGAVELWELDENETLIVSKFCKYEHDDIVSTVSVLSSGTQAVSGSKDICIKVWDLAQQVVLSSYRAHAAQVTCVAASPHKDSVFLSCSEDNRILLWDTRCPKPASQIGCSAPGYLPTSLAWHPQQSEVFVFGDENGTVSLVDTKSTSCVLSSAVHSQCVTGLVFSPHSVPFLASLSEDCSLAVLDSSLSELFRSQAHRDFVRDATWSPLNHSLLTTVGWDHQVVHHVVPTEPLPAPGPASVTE

| Compound | IC50 (PRMT5:MEP50) [nM] | IC50 (SDMA; [1]) [pM] | IC50 (Z-138 cells) [pM] | IC50 (SDMA; [2]) [pM] | IC50 (Z-138 cells; [2]) [pM] |
| --- | --- | --- | --- | --- | --- |
| CC1CNCc2c(CCC3=C[C@@H](n4ccc5c(N)ncnc54)[C@H](O)[C@@H]3O)cc(C(F)F)c(F)c21 (single isomer, unassigned) [Compound 22B] |  |  |  | 100 to 1000 |  |
| CC1Cc2c(F)c(C(F)F)cc(CCC3=C[C@@H](n4ccc5c(N)ncnc54)[C@H](O)[C@@H]3O)c2CN1 (single isomer, unassigned) [Compound 23B] |  | 1100 to 50000 | > 1000 |  |  |
| Nc1ncnc2c1ccn2[C@@H]1C=C(COc2cc(C(F)F)cc3c2CNCC3)[C@@H](O)[C@H]1O [Compound 7, (1S,2R,5R)-5-(4-amino-7H-pyrrolo[2,3-d]pyrimidin-7-yl)-3-(((6-(difluoromethyl)-1,2,3,4-tetrahydroisoquinolin-8-yl)oxy)methyl)cyclopent-3-ene-1,2-diol] | 0.25 to 0.95 | 1100 to 50000 | > 1000 |  |  |
| Cc1cc2c(c(CCC3=C[C@@H](n4ccc5c(N)ncnc54)[C@H](O)[C@@H]3O)c1)CNCC2 [Compound 8, (1S,2R,5R)-5-(4-amino-7H-pyrrolo[2,3-d]pyrimidin-7-yl)-3-(2-(6-methyl-1,2,3,4-tetrahydroisoquinolin-8-yl)ethyl)cyclopent-3-ene-1,2-diol] | 0.25 to 0.95 | 1100 to 50000 | > 1000 |  |  |
| Nc1ccn([C@@H]2C=C(COc3cc(F)c4cc(Cl)c(N)nc4c3)[C@@H](O)[C@H]2O)c(=O)n1 [Compound 16, 4-Amino-1-((1R,4R,5S)-3-(((2-amino-3-chloro-5-fluoroquinolin-7-yl)oxy)methyl)-4,5-dihydroxycyclopent-2-en-1-yl)pyrimidin-2 (1H)-one] | 0.25 to 0.95 |  |  |  |  |
| Nc1nc2cc(CCC3=C[C@@H](n4ccc5c4ncn4ccnc54)[C@H](O)[C@@H]3O)cc(F)c2cc1Cl [Compound 27, (1S,2R,5R)-3-(2-(2-Amino-3-chloro-5-fluoroquinolin-7-yl)ethyl)-5-(7H-imidazo[1,2-c]pyrrolo[3,2-e]pyrimidin-7-yl)cyclopent-3-ene-1,2-diol] | > 0.95 |  | > 1000 |  |  |
| Nc1nc2cc(CCC3=C[C@@H](n4ccc5cn6ccnc6nc54)[C@H](O)[C@@H]3O)ccc2cc1Cl [Compound 28, (1S,2R,5R)-3-(2-(2-Amino-3-chloroquinolin-7-yl)ethyl)-5-(8H-imidazo[1,2-a]pyrrolo[2,3-d]pyrimidin-8-yl)cyclopent-3-ene-1,2-diol] | > 0.95 |  | > 1000 |  |  |
| Nc1nc2cc(CCC3=C[C@@H](n4ncc5c4ncn4ccnc54)[C@H](O)[C@@H]3O)cc(F)c2cc1Cl [Compound 29, (1S,2R,5R)-3-(2-(2-Amino-3-chloro-5-fluoroquinolin-7-yl)ethyl)-5-(7H-imidazo[1,2-c]pyrazolo[4,3-e]pyrimidin-7-yl)cyclopent-3-ene-1,2-diol] | > 0.95 |  |  |  |  |
| CONc1ncnc2c1ccn2[C@@H]1C=C(CCc2cc(F)c3cc(Cl)c(N)nc3c2)[C@@H](O)[C@H]1O [Compound 30, (1S,2R,5R)-3-(2-(2-Amino-3-chloro-5-fluoroquinolin-7-yl)ethyl)-5-(4-(methoxyamino)-7H-pyrrolo[2,3-d]pyrimidin-7-yl)cyclopent-3-ene-1,2-diol] | 0.25 to 0.95 |  |  | 100 to 1000 |  |

More lines, now with the values ahead:

| IC50 (PRMT5:MEP50) [nM] | IC50 (SDMA; [1]) [pM] | IC50 (Z-138 cells) [pM] | IC50 (SDMA; [2]) [pM] | IC50 (Z-138 cells; [2]) [pM] | Compound |
| --- | --- | --- | --- | --- | --- |
| 0.25 to 0.95 | 1100 to 50000 | > 1000 |  |  | CC1CNCc2c(CCC3=C[C@@H](n4ccc5c(N)ncnc54)[C@H](O)[C@@H]3O)cc(C(F)F)c(F)c21 (single isomer, unassigned) [Compound 22A] |
| 0.25 to 0.95 |  |  | 100 to 1000 |  | CC1Cc2c(F)c(C(F)F)cc(CCC3=C[C@@H](n4ccc5c(N)ncnc54)[C@H](O)[C@@H]3O)c2CN1 (single isomer, unassigned) [Compound 23A] |
| 0.25 to 0.95 |  |  | 100 to 1000 |  | Nc1nc2cc(CCC3=C[C@@H](n4cnc5c(N)ncnc54)[C@H](O)[C@@H]3O)cc(F)c2cc1Cl [Compound 1, (1S,2R,5R)-3-(2-(2-Amino-3-chloro-5-fluoroquinolin-7-yl)ethyl)-5-(6-amino-9H-purin-9-yl)cyclopent-3-ene-1,2-diol] |
| 0.25 to 0.95 | 1100 to 50000 | > 1000 |  |  | Nc1nc2cc(CCC3=C[C@@H](n4ccc5c(N)ncnc54)[C@H](O)[C@@H]3O)cnc2cc1Cl [Compound 2, (1S,2R,5R)-3-(2-(6-Amino-7-chloro-1,5-naphthyridin-3-yl)ethyl)-5-(4-amino-7H-pyrrolo [2,3-d]pyrimidin-7-yl)cyclopent-3-ene-1,2-diol] |
| 0.25 to 0.95 | 1100 to 50000 | > 1000 |  |  | Nc1cnc2ccc(CCC3=C[C@@H](n4ccc5c(N)ncnc54)[C@H](O)[C@@H]3O)cc2n1 [Compound 3, (1S,2R,5R)-5-(4-Amino-7H-pyrrolo[2,3-d]pyrimidin-7-yl)-3-(2-(3-aminoquinoxalin-6-yl)ethyl)cyclopent-3-ene-1,2-diol] |
| 0.25 to 0.95 | 1100 to 50000 | > 1000 |  |  | Nc1cnc2ccc(CC[C@@]34C[C@@H]3[C@@H](n3ccc5c(N)ncnc53)[C@H](O)[C@@H]4O)cc2n1 [Compound 4, (1R,2R,3S,4R,5S)-4-(4-Amino-7H-pyrrolo[2,3-d]pyrimidin-7-yl)-1-(2-(3-aminoquinoxalin-6-yl)ethyl)bicyclo[3.1.0]hexane-2,3-diol] |
| 0.25 to 0.95 |  |  | 100 to 1000 | 101 to 1000 | Nc1nc2cc(CCC3=C[C@@H](n4ncc5c(N)ncnc54)[C@H](O)[C@@H]3O)cc(F)c2cc1Cl [Compound 5, (1S,2R,5R)-5-(4-Amino-1H-pyrazolo[3,4-d]pyrimidin-1-yl)-3-(2-(2-amino-3-chloro-5-fluoroquinolin-7-yl)ethyl)cyclopent-3-ene-1,2-diol] |
| 0.25 to 0.95 | 1100 to 50000 |  |  | 101 to 1000 | Cc1nc(N)c2cnn([C@@H]3C=C(CCc4cc(F)c5cc(Cl)c(N)nc5c4)[C@@H](O)[C@H]3O)c2n1 [Compound 6, (1S,2R,5R)-3-(2-(2-amino-3-chloro-5-fluoroquinolin-7-yl)ethyl)-5-(4-amino-6-methyl-1H-pyrazolo[3,4-d]pyrimidin-1-yl)cyclopent-3-ene-1,2-diol] |
